According to patent publication US20250340939A1 (priority 2021, published 2025):
“Also recorded” adds a separate entry of the source.

Tests used:
E. coli = assay: Antimicrobial susceptibility testing (AST) with MST read-out of 16S rRNA; set-up: dose or concentration left out as unconfirmed; details: 5*10^5 bacteria; 90-150 minutes
Method: Kanamycin resistant E. coli bacteria, DH5α or BL-21, were maintained as frozen stocks at −80° C. in homemade L.B (Bacto tryptone 10 g/L, NaCl 10 g/L Bacto yest extract 5 g/L in autoclavable DDW) supplemented with 50% Glycerol as cryoprotective agent. Cultures were started from frozen stocks and cultivated at 37° C. overnight, at the presence of 30 μg/ml Kanamycin. After starter growth, bacteria amount was measured using optical density for further experiments.
Bacteria was grown as described in “bacterial growth” section and adjusted to 0.1 O.D for a second growing step after overnight starter. When reached 0.6 O.D, bacterial concentration adjusted to 7.143*10^5 bacteria/ml and 0.7 ml (5*10^5 bacteria) were divided to slit-cap Eppendorf tubes containing Ampicillin antibiotic or water as control. The tubes were placed in a temperature control thermo-mixer for further growth at 37° C. At an indicated time-point, tubes were taken out combined with RNA protect reagent for RNA extraction as previously described.

S-gene RNA (SARS-CoV2) = assay type: binding
16S rRNA (E. coli) = assay: MST of Cy5 probes hybridized with total bacterial RNA; assay type: binding
Method: For bacterial RNA extraction, DH5α E. coli cells transfected with pcDNA3.1+ plasmid were grown overnight in LB medium containing 100 μg/ml ampicillin. The concentration of bacterial cells was determined according to OD at 600 nm, and ˜7·10^8 cells were taken for RNA extraction. 1 volume of bacterial culture was mixed with 2 volumes of RNAprotect® Bacteria Reagent (QIAGEN), vortexed for 5 seconds and incubated for 5 minutes at room temperature. The sample was then centrifuged for 10 minutes at 5,000×g at room temperature. After discarding supernatant, the pellet was resuspended in 100 μl TE buffer (10 mM Tris-HCl, 1 mM EDTA, pH 8) containing 1 mg/ml lysozyme. The samples were vortexed for 5 seconds, and then incubated at room temperature for 10 minutes with vortexing every 2 minutes. 1 ml TRIzol™ reagent was added to the sample. The sample was incubated at room temperature for 5 minutes, and then RNA extraction was performed as described hereinabove.
RNA was extracted from a sample, and after extraction, the RNA pellet was solubilized and hybridized with a specific fluorescently labeled DNA probe in a hybridization solution (as schematically depicted in FIG. 1). After hybridization, the hybridized sample was loaded into an MST capillary and inserted into a Monolith™ MST instrument (NanoTemper Technologies GmbH, Germany). This instrument included a blue mode (493 nm excitation, […]) and red mode ([…], 670 nm emission) for detection, and an I.R laser (1475 nm+/−15 nm) for heating. The intensities for both fluorescence detection (LED) and IR laser are adjustable, in a range of 0%-100%, wherein the temperature gradient generated has a temperature difference of up to about 2-8° C. Thermophoretic force was induced by infrared laser after 1 second, and maintained for 2 seconds, for a total of a 3 second measurement window (measurement time may optionally be further reduced to 2 seconds using current available MST instruments).
For RNA titration measurements, the extracted RNA solution was diluted to X2 and a serial dilution was prepared in water. Hybridization solutions were prepared as described herein, were X1 solution consisted of SSC buffer X1, 0.05% TWEEN™ 20 surfactant, and 1% formamide unless indicated otherwise. Fluorescently labeled probes were diluted from a 100 μM stock to 1:2400 in hybridization solution X2, denatured for 5 minutes at 100° C. and then incubated on ice for 5 minutes. If a mixture of uniformly labeled probes was prepared, the probes were diluted to a 1:1200 dilution in water and then diluted to 1:2400 with hybridization solution X4 (1:1/number of probes) to create equal molarity of the fluorescent dye. The probe solution was combined with the titration series in a 1:1 (v/v) ratio (10 μL total volume) and allowed to hybridize at a defined temperature for a given time as described. If post-hybridization with intercalating agents (ICA), doxorubicin or Midori™ Green, was performed, the samples were combined with ICA X5 solution 4:1 (v:v) ratio, 8 μL and 2 μL respectively. For cell based measurements, after extraction, the RNA pellet was solubilized and hybridized with a specific fluorescently labeled DNA probe in a hybridization solution (as schematically depicted in FIG. 1).
In order to determine the optimal hybridization temperature, one of the designed probes (16S1^Cy5) was incubated with increasing concentrations of bacterial RNA at different temperatures for 10 minutes. MST measurements were then performed using the red wavelength acquisition mode.
In order to assess the effect of human RNA presence and Dox post-hybridization on signal response, 16S1^Cy5 was incubated with increasing concentrations of bacterial or human total RNA at 71° C. for 2 hours. Equal amounts were then taken for post-hybridization incubation with Dox or hybridization buffer as a control. […]

human total RNA = assay: MST of 16S probe / Dox with human total RNA (specificity); assay type: binding; details: 100 μM Dox with 16S1^Cy5; blue mode
Method: In order to assess the effect of human RNA presence and Dox post-hybridization on signal response, 16S1^Cy5 was incubated with increasing concentrations of bacterial or human total RNA at 71° C. for 2 hours. Equal amounts were then taken for post-hybridization incubation with Dox or hybridization buffer as a control.
In order to compare signal sensitivity in the presence and absence of Dox, ΔFnorm[‰] values of human RNA were subtracted (ΔΔFnorm), and the ratios of ΔΔFnorm[‰] were compared.

[1] = MST of Dox alone in hybridization solution; assay type: physicochemical; details: 3.125-100 μM Dox; no RNA, no probes; blue mode
Method: In order to investigate the possibility that Dox monomers interact with each other, thereby causing Dox to migrate into the heating zone particularly at high Dox concentrations, Dox was incubated in hybridization solution without the presence of either S-gene RNA or the DNA probes.

Structure (SMILES)	growth of E. coli bacteria in the presence of antibiotic (E. coli)	effect of Dox on slope of S^Cy5 linear regression (analytical sensitivity) (S-gene RNA (SARS-CoV2); 100 μM Dox vs 0, 1 or 10 μM Dox)	effect of S-gene RNA concentration on Dox signal without DNA probe (S-gene RNA (SARS-CoV2); 100 μM Dox, no S^Cy5 probe, blue mode)	Dox fluorescence dependence on S-gene RNA concentration (S-gene RNA (SARS-CoV2); 1, 10 or 100 μM Dox, S^Cy5 present, blue mode)	effect of Dox on initial fluorescence intensity of S^Cy5 (S-gene RNA (SARS-CoV2); 1, 10 or 100 μM Dox, dose-dependent, prior to temperature gradient)	effect of Dox on signal sensitivity of 16S probes (16S rRNA (E. coli); 100 μM Dox post-hybridization)	Dox signal dependence on RNA concentration (16S rRNA (E. coli); 100 μM Dox with 16S1^Cy5, blue mode)	Dox signal dependence on RNA concentration (human total RNA)	degree of Dox migration into the heating zone [1]
CC1(C)S[C@@H]2[C@H](NC(=O)[C@H](N)c3ccccc3)C(=O)N2[C@H]1C(=O)O [Ampicillin]	no growth was observed								
COc1cccc2c1C(=O)c1c(O)c3c(c(O)c1C2=O)C[C@@](O)(C(=O)CO)C[C@@H]3O[C@H]1C[C@H](N)[C@H](O)[C@H](C)O1 [Dox, doxorubicin, reference compound]		steeper slope	did not noticeably affect the change in signal	dependent on S-gene RNA concentration	decreased the initial fluorescence intensity values	increased signal sensitivity; also recorded: enhanced signal sensitivity to a considerable extent	dependent on the concentrations of both human RNA and bacterial RNA	dependent on the concentrations of both human RNA and bacterial RNA	correlated to Dox concentration
